What was measured:
Type in all cases: in vivo, maize
non-transgenic gametes = assay: Field application of herbicide to hemizygous glyphosate resistant plants at V12-V19; crosses, progeny seedlings sprayed, survivors counted, chi square of segregation ratios
Procedure: The elimination of non-transgenic gametes was also tested at the V12-V19 stages. Meiosis sorted the transgene of a diploid hemizygous microsporophyte or macrosporophyte into one-half of the gametes. The resulting transgenic construct contained a gene conferring plant resistance or tolerance to a specific herbicide, namely glyphosate. Application of the herbicide treatments at various growth phases eliminated gametes lacking the transgenic construct.
Glyphosate treatments included: V12, V17, V19, V15+V17, and V17+V19. Each application, included splits 3 quarts/A. Only resistant plants were sprayed. Glufosinate treatments included: V12, V17, V18, V19, V15+V17, and V17+V19. Each application, included splits 1.5 quarts/A. Only resistant plants were sprayed.
Pollination of the sprayed resistant plants included: 4 selfed, 4 pollinations from unsprayed resistant, 4 pollinations from susceptible. Pollination of the unsprayed resistant plants included: 4 selfed, 4 pollinations from sprayed resistant, 4 pollinations from susceptible. […]
Survivors were counted and chi square analysis performed to determine whether segregation ratios deviated from the null hypothesis (e.g., 75:25 resistant phenotype for selfs or crosses within the resistant hemizygous hybrids, 50:50 resistant phenotype for crosses between resistant and susceptible hybrids, or 100% mortality for susceptible selfed seed).

wild type pollen = assay: Treated heterozygous plants crossed onto wild type inbred; progeny leaf dip test (rag doll, 2% v/v RoundUp Ultra)
Excerpt: (§1) Four row plots of a heterozygous inbred for glyphosate resistance were established. At the V10, V12, V14 and V10+V14 stages of plant development, glyphosate was broadcast to the center two rows. The WeatherMax glyphosate formulation was applied at 0, 1.6 and 3.2 l/Ha, such rates corresponding to 0, 1 and 2 times the normal commercial rates in corn production. To assure there was no glyphosate drift on the non-treated controls, non-treated plants were separated by 16 border rows.
(§2) A series of crosses were made from the treated plants to identify the gamete rouging effects of glyphosate on both pollen and ovules. To characterize the effects on pollen, heterozygous plants treated with glyphosate were crossed onto a wild type inbred. To characterize the effect of glyphosate on ovules, non-treated wild type pollen was crossed to heterozygous plants treated with glyphosate. Finally, the treated heterozygous plants were selfed and tested for zygosity via quantitative PCR.
(§3) The progeny of the various crosses from Example 2 were evaluated by two methods. In the first method, 25 seeds per replication (4 replications in total) were planted into rag dolls and grown at 25° C. in darkness four days. After this time, the rag dolls were transferred to a greenhouse to allow the shoots to turn green. After four days in the greenhouse, seedlings for each rag doll were dipped in a 2% v/v solution of RoundUp Ultra (concentration corresponding to common concentrations in spray applications at the field level). After one week, individual plants were rated as normal, dead or abnormal. Normal plants were assumed to carry the gene for tolerance to glyphosate, dead plants were assumed to be wild type.
The crosses separated the effects of glyphosate on pollen and ovule gametes. To separate effects on pollen, heterozygous plants were sprayed with glyphosate and pollen collected from treated plants was crossed onto homozygous wild type plants. […]

wild type ovules = assay: Non-treated wild type pollen crossed to treated heterozygous plants; progeny leaf dip test
Excerpt: as §1, §2, §3
The effects of glyphosate on wild type ovules were less pronounced than for pollen gametes (as expressed in FIG. 8). In the control treatment, untreated heterozygous plants were pollinated with homozygous wild type pollen. Expected segregation ratios for the progeny of this cross would be 50% resistant and 50% susceptible. Here, the control progeny segregated at 54% resistant, statistically equal to the expected ratio of 50%. […] At the highest rate of glyphosate, the segregation of progeny was clearly disturbed. High rates applied at the V14 stage produced progeny nearly 100% resistant, while applications made before V14 were intermediate.

wild type gametes [1] = assay: Treated heterozygous plants selfed; progeny leaf dip test; settings: all treatments except V12 at the lowest rate, non-treated 75% (FIG. 9)
Excerpt: as §1, §2
The progeny of the various crosses from Example 2 were evaluated by two methods. In the first method, 25 seeds per replication (4 replications in total) were planted into rag dolls and grown at 25° C. in darkness four days. After this time, the rag dolls were transferred to a greenhouse to allow the shoots to turn green. […]

wild type gametes [2] = assay: Treated hemizygous plants selfed; progeny scored for level of zygosity via QtPCR
Excerpt: as §2
In the second method of analysis, the glyphosate resistant selfed plants were grown in the field and leaf punched at the V8 stage of development. Leaf tissues were then frozen and scored for their level of zygosity according to standard PCR protocols for glyphosate resistance. The data from the progeny tests was arc sine transformed and submitted to a common analysis of variance. Since the F-test for overall treatments was highly significant, tests of significance between the controls and the various treatments were also conducted.
Plants hemizygous for glyphosate resistance were sprayed with glyphosate and then selfed. The progeny were then scored for level of zygosity via QtPCR. While the results from PCR corroborate data from the leaf dip assays, the magnitude of the response is less (as expressed in FIG. 10).

`O=C(O)CNCP(=O)(O)O` [glyphosate] was tested, and the “elimination of non-transgenic gametes” value (non-transgenic gametes; application at V12, 3 quarts/A, glyphosate resistant plants (FIG. 1)) was “eliminated most non-transgenic female and male gametes”, the “elimination of non-transgenic gametes” value (non-transgenic gametes; application at V15 or later, 3 quarts/A, glyphosate resistant plants (FIGS. 2-5)) was “primarily eliminated non-transgenic female gametes” and the “effect on wild type pollen: dependence on rate or time of application” value (wild type pollen; 1.6 vs 3.2 l/Ha, V10, V12, V14, V10+V14) was “not affected by rate or time of application”. The “rouging of wild type pollen (leaf dip test)” value (wild type pollen; V10, V12, V14, V10+V14, 1.6 and 3.2 l/Ha (FIG. 7)) was “highly effective in rouging wild type pollen”, the “progeny resistant to glyphosate” value (wild type pollen; treated plants crossed to wild type ovules, all rates and timings, expected 50% if no effect (FIG. 7)) was about 100% and the “progeny resistant to glyphosate” value (wild type ovules; high rates applied at V14, expected 50% if no effect (FIG. 8)) was about 100%. The “progeny resistant to glyphosate” value (wild type ovules; highest rate, applications made before V14 (FIG. 8)) was “intermediate”, the segregation of progeny (wild type ovules; treated at V10 and V12 at the lowest rate, pollinated with wild type pollen (FIG. 8)) was “segregated as expected if glyphosate had no affect on wild type ovules” and the “progeny resistant to glyphosate” value (wild type ovules; two pass program V10+V14 (FIG. 8)) was about 100%. The “progeny resistant to glyphosate” value (wild type gametes [1]) was about 100%, the “ratio of homozygous wild type plants in selfed progeny (QtPCR)” value (wild type gametes [2]; sprayed then selfed (FIG. 10)) was “significantly reduced the ratio of homozygous wild type plants” and the “percentage of homozygous glyphosate resistant plants in selfed progeny (QtPCR)” value (wild type gametes [2]; two pass applications at the highest rates (FIG. 10)) was “produced the greatest percentage of homozygous glyphosate resistant plants”.

Reference: patent publication US20150082479A1, “CHEMICAL SELECTION OF RESISTANT GAMETES OF PLANTS IN THE FIELD” (PIONEER HI BRED INTERNATIONAL INC, priority 2008, published 2015)
